Laboratory results reported in patent US20230183243A1, “HETEROARYL DERIVATIVES AND PHARMACEUTICAL COMPOSITION COMPRISING SAME AS ACTIVE INGREDIENT” (VORONOI INC., priority 2019, published 2023).

Columns and labels:
JNK2 = molecular target: T1, JNK2 (Homo sapiens, UniProt P45984); assay: JNK enzyme activity, Kinase HotSpot service (Reaction Biology Corporation); type: biochemical; settings: ATP concentration of 10 μM
T1 construct: purchased DiscoverX Corp. (ScanMAX Kinase panel, commissioned)
Protocol: (§1) IC50 values of the compound of Example 7 for the enzymes were measured using the Kinase HotSpot service (Reaction Biology Corporation), and a test was performed under the same conditions at an ATP concentration of 10 μM. The concentration of the compound was measured at a 3-fold concentration gradient from the peak concentration of 10 mM.
(§2) All the experimental methods were performed as provided in the Kinase HotSpot Customer Protocol (http://www.reactionbiology.com//Kinase_Assay_Protocol).

JNK1 = molecular target: T2, JNK1 (Homo sapiens, UniProt P45983); assay: as above; type: biochemical; settings: ATP concentration of 10 μM
T2 construct: purchased DiscoverX Corp. (ScanMAX Kinase panel, commissioned)
T2 sequence (P45983 whole entry): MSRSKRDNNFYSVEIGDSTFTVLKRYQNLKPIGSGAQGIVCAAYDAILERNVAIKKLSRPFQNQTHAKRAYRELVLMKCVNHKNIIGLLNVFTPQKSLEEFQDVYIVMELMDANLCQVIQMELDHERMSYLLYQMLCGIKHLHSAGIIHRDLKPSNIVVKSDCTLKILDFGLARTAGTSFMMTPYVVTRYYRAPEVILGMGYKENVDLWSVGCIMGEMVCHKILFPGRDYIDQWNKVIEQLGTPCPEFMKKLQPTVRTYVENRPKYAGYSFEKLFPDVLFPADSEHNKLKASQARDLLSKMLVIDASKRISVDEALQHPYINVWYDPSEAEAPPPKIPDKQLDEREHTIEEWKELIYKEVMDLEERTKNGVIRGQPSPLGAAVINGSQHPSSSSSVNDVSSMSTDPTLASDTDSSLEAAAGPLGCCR
Protocol: as §1, §2

JNK3 = molecular target: T3, JNK3 (Homo sapiens, UniProt P53779); assay: as above; type: biochemical; settings: ATP concentration of 10 μM
T3 construct: purchased DiscoverX Corp. (ScanMAX Kinase panel, commissioned)
T3 sequence (P53779 whole entry): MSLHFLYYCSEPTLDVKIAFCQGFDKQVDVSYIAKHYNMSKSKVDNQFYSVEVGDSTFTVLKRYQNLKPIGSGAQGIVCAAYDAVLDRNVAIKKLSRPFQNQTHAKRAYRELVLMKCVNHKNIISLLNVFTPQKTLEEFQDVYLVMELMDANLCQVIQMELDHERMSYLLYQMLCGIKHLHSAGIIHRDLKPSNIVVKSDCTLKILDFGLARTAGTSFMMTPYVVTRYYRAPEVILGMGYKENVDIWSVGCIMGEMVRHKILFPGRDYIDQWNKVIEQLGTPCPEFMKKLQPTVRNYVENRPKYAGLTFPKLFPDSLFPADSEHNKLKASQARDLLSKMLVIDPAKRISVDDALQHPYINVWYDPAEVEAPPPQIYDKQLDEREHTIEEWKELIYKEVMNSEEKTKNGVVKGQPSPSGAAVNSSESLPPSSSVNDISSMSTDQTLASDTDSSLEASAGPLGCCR
Protocol: as §1, §2

LRRK2 = LRRK2 (Homo sapiens, UniProt Q5S007); assay: LRRK2 enzyme activity, ADP-Glo kinase assay; type: biochemical; design: purchased Invitrogen PR8604B; settings: purified human LRRK2, ATP 10 μM, 25° C., 2 hours
Protocol: To evaluate the inhibitory activity of the compound according to the present invention against LRRK2 and JNKs, an experiment was performed as follows.
The compound of Example 7 was reacted with a purified human LRRK2 (Invitrogen #PR8604B) enzyme to evaluate an ability of the compound of Example 7 to inhibit the enzyme using a method as described below. A composition of 40 mM Tris-HCl (pH 7.4), 20 mM MgCl2, 0.5 mg/mL BSA, and 50 μM DTT was used as a reaction buffer, and all reactions of test substances were performed in the reaction buffer. The compound was diluted […] from a 10 mM DMSO stock using a serial dilution method, and enzyme activity was measured at final compound concentrations of 50, 10, 2, 0.4, 0.08, 0.016, 0.0032, 0.00064, 0.000128, 0.0000256, 0.00000512, and 0.000001024 μM. In the test, purified ATP (10 μM) and an enzyme substrate (0.2 μg) were reacted with a human LRRK2 (25 ng) enzyme at 25° C. for 2 hours, and the enzyme activity was then determined using an in vitro ADP-Glo™ kinase assay (Promega). An enzyme-activity reaction solution, an ADP-Glo reaction solution, and an enzyme-ability detection solution were reacted at a ratio of 2:2:1 to measure a degree of inhibition of the enzyme activity with luminescence. […]

[1] = molecular target: T4, RSK4(Kin.Dom.1-N-terminal) (Homo sapiens, UniProt Q9UK32); assay: ScanMAX Kinase panel (DiscoverX); type: binding
T4 construct: RSK4(Kin.Dom.1); purchased DiscoverX Corp. ScanMAX Kinase panel
Protocol: (§3) Further, to evaluate the inhibitory activity of the compound according to the present invention against more enzymes, an experiment was performed as follows. Specifically, the enzyme (kinase) selectivity of the compound of Example 64 selected from the Example compounds of the present invention was measured by commissioning DiscoverX Corp., and an experiment was performed using a panel for ScanMAX™ Kinase analysis. In this case, the concentration of a drug treated with the enzyme was set at 1 μM in DMSO, and the percent control (% control) were defined in the same manner as in the following Expression 1.
(§4) (Example compound−Positive control)/(Negative control−Positive control)×100 [Expression 1]
(§5) Wherein the positive control represents a compound having a percent control of 0%, and the negative control represents a compound having a percent control of 100% in DMSO. For the enzyme selectivity of the present invention, the compound was also judged to have activity against the corresponding enzyme when the percent control for each of the enzymes was <35% (i.e., less than 35%).

GAK = molecular target: T5, GAK (Homo sapiens, UniProt O14976); assay: ScanMAX Kinase panel (DiscoverX); type: binding; settings: read-out: % Cont @ 1 μM
T5 construct: purchased DiscoverX Corp. ScanMAX Kinase panel
Protocol: as §3, §4, §5

CAMKK2 = molecular target: T6, CAMKK2 (Homo sapiens, UniProt Q96RR4); assay: ScanMAX Kinase panel (DiscoverX); type: binding; settings: read-out: % Cont @ 1 μM
T6 construct: purchased DiscoverX Corp. ScanMAX Kinase panel
T6 sequence (Q96RR4 whole entry): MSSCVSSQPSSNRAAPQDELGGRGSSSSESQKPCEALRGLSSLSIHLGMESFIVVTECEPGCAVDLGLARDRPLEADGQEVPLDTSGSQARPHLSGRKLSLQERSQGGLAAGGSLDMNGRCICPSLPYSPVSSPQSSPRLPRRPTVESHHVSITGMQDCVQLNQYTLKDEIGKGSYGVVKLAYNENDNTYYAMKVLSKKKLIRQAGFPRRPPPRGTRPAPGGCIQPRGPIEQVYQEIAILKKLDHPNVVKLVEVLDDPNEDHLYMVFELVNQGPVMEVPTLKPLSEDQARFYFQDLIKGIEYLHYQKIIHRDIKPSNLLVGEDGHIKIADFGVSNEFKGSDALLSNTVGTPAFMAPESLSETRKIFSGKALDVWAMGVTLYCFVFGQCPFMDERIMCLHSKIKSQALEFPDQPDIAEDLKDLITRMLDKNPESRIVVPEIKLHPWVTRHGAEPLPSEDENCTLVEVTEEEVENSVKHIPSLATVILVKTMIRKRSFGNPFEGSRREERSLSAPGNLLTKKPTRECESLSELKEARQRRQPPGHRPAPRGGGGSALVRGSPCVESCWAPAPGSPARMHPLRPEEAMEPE
Protocol: as §3, §4, §5

CAMKK1 = molecular target: T7, CAMKK1 (Homo sapiens, UniProt Q8N5S9); assay: ScanMAX Kinase panel (DiscoverX); type: binding; settings: read-out: % Cont @ 1 μM
T7 construct: purchased DiscoverX Corp. (ScanMAX Kinase panel, commissioned)
T7 sequence (Q8N5S9 whole entry): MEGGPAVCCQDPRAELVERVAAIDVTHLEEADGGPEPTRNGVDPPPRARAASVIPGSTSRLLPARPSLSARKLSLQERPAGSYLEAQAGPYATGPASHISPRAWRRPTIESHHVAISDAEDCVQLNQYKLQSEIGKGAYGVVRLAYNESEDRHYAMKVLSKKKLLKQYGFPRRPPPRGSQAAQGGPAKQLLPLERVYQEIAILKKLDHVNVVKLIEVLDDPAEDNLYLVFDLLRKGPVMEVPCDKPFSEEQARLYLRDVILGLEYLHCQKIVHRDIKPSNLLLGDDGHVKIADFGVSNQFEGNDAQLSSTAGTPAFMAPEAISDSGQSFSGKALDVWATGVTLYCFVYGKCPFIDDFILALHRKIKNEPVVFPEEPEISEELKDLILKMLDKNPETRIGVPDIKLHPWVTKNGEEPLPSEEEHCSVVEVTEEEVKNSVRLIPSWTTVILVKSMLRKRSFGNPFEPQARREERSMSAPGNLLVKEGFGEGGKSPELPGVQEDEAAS
Protocol: as §3, §4, §5

[2] = molecular target: T8, JAK2(JH1domain-catalytic) (Homo sapiens, UniProt O60674); assay: ScanMAX Kinase panel (DiscoverX); type: binding
T8 construct: JAK2(JH1domain-; purchased DiscoverX Corp. (ScanMAX Kinase panel, commissioned)
T8 sequence (O60674 849-1124 limits assumed): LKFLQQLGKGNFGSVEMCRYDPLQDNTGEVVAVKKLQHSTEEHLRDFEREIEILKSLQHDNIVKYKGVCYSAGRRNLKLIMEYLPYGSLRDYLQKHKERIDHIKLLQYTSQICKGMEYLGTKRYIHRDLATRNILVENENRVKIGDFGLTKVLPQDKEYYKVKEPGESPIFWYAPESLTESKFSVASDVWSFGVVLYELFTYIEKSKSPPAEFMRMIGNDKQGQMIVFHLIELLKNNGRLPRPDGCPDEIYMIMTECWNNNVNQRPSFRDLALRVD
Protocol: as §3, §4, §5

[3] = molecular target: T9, TYK2(JH1domain-catalytic) (Homo sapiens, UniProt P29597); assay: ScanMAX Kinase panel (DiscoverX); type: binding
T9 construct: TYK2(JH1domain-; purchased DiscoverX Corp. (ScanMAX Kinase panel, commissioned)
Protocol: as §3, §4, §5

[4] = molecular target: T10, RSK2(Kin.Dom.1-N-terminal) (Homo sapiens, UniProt P51812); assay: ScanMAX Kinase panel (DiscoverX); type: binding; settings: read-out: % Cont @ 1 μM
T10 construct: RSK2(Kin.Dom.1-; purchased DiscoverX Corp. (ScanMAX Kinase panel, commissioned)
T10 sequence (P51812 68-327 limits assumed): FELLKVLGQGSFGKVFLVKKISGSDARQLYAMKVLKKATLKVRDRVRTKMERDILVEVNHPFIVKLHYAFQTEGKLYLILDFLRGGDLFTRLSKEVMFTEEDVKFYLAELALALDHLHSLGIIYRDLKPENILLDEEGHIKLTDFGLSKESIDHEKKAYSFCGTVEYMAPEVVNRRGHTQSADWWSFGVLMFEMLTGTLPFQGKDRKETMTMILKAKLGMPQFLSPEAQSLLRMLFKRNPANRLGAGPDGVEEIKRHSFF
Protocol: as §3, §4, §5

CSNK1D = molecular target: T11, CSNK1D (Homo sapiens, UniProt P48730); assay: ScanMAX Kinase panel (DiscoverX); type: binding; settings: read-out: % Cont @ 1 μM
T11 construct: purchased DiscoverX Corp. ScanMAX Kinase panel
T11 sequence (P48730 whole entry): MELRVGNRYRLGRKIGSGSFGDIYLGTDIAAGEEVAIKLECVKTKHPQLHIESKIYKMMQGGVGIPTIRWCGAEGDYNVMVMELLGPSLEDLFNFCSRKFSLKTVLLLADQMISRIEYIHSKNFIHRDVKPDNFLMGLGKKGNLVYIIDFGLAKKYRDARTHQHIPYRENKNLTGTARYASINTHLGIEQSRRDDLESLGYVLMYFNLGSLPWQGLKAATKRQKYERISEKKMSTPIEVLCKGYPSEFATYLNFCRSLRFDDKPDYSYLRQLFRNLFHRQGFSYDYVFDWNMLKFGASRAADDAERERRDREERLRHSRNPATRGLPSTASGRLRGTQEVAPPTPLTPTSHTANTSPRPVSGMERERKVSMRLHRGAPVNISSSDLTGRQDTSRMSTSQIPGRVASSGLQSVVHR
Protocol: as §3, §4, §5

MEK4 = molecular target: T12, MEK4 (Homo sapiens, UniProt P45985); assay: ScanMAX Kinase panel (DiscoverX); type: binding; settings: read-out: % Cont @ 1 μM
T12 construct: purchased DiscoverX Corp. ScanMAX Kinase panel
Protocol: as §3, §4, §5

SBK1 = molecular target: T13, SBK1 (Homo sapiens, UniProt Q52WX2); assay: ScanMAX Kinase panel (DiscoverX); type: binding; settings: read-out: % Cont @ 1 μM
T13 construct: purchased DiscoverX Corp. ScanMAX Kinase panel
Protocol: as §3, §4, §5

DYRK1B = molecular target: T14, DYRK1B (Homo sapiens, UniProt Q9Y463); assay: ScanMAX Kinase panel (DiscoverX); type: binding; settings: read-out: % Cont @ 1 μM
T14 construct: purchased DiscoverX Corp. ScanMAX Kinase panel
T14 sequence (Q9Y463 whole entry): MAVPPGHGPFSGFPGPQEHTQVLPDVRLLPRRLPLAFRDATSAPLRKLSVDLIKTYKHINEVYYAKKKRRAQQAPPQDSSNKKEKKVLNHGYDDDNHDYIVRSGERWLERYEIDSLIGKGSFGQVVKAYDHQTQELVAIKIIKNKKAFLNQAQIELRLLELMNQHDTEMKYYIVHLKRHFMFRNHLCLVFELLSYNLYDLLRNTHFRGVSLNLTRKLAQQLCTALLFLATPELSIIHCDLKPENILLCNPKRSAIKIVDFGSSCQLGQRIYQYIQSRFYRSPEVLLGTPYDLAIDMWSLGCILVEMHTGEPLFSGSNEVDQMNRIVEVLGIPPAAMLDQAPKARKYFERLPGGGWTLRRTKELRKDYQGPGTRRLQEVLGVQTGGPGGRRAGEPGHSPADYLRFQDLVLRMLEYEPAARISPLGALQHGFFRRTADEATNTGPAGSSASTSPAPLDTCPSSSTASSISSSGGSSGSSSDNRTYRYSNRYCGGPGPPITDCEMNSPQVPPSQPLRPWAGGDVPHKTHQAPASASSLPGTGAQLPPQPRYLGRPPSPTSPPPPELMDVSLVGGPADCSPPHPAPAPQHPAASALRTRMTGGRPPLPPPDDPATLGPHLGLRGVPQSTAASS
Protocol: as §3, §4, §5

KIT(V559D, V654A) = molecular target: T15, KIT(V559D, V654A) (Homo sapiens, UniProt P10721, V559D/V654A); assay: ScanMAX Kinase panel (DiscoverX); type: binding; settings: read-out: % Cont @ 1 μM
T15 construct: purchased DiscoverX Corp. ScanMAX Kinase panel
Protocol: as §3, §4, §5

PRKCE = molecular target: T16, PRKCE (Homo sapiens, UniProt Q02156); assay: ScanMAX Kinase panel (DiscoverX); type: binding; settings: read-out: % Cont @ 1 μM
T16 construct: purchased DiscoverX Corp. (ScanMAX Kinase panel, commissioned)
Protocol: as §3, §4, §5

AAK1 = molecular target: T17, AAK1 (Homo sapiens, UniProt Q2M2I8); assay: ScanMAX Kinase panel (DiscoverX); type: binding; settings: read-out: % Cont @ 1 μM
T17 construct: purchased DiscoverX Corp. ScanMAX Kinase panel
T17 sequence (Q2M2I8 whole entry): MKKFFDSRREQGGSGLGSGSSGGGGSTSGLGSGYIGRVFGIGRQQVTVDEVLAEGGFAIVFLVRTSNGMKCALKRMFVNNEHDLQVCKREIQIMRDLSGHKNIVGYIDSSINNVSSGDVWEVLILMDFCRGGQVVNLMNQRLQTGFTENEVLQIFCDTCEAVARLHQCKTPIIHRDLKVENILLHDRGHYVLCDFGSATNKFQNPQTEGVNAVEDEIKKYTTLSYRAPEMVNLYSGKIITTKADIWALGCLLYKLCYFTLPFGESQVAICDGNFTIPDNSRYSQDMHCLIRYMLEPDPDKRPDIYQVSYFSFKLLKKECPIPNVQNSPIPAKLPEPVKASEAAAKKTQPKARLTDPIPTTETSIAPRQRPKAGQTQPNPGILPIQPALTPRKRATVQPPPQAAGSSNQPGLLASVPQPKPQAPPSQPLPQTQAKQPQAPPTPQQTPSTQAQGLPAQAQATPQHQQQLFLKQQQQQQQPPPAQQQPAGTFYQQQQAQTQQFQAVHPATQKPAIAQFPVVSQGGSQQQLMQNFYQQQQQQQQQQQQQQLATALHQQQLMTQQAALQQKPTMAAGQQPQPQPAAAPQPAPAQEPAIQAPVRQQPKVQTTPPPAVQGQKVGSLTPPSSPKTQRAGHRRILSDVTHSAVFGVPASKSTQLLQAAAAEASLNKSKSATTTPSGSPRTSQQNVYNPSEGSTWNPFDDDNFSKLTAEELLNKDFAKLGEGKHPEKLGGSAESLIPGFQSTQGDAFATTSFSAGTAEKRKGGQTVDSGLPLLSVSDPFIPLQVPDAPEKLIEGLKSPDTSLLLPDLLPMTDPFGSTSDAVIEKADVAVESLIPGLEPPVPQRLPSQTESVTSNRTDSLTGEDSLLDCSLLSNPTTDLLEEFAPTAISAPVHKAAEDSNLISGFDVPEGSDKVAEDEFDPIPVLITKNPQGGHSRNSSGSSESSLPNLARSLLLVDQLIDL
Protocol: as §3, §4, §5

[5] = molecular target: T18, TYK2(JH2domain-pseudokinase) (Homo sapiens, UniProt P29597); assay: ScanMAX Kinase panel (DiscoverX); type: binding
T18 construct: TYK2(JH2domain-; purchased DiscoverX Corp. ScanMAX Kinase panel
Protocol: as §3, §4, §5

T1 sequence (P45984 whole entry): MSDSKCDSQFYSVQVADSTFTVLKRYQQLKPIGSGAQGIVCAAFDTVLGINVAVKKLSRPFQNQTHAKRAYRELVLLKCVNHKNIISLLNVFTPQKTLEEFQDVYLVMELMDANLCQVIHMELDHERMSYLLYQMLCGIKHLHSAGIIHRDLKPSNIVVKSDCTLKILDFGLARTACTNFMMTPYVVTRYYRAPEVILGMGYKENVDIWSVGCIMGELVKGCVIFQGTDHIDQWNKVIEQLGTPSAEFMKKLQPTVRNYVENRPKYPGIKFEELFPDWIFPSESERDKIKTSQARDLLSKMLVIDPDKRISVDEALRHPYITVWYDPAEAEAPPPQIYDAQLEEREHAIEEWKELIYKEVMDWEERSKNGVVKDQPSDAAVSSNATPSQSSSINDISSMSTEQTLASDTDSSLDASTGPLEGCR

Row | SMILES | IC50 (JNK2) [nM] | IC50 (JNK1) [nM] | IC50 (JNK3) [nM] | IC50 (LRRK2) [nM] | % Cont @ 1 μM [1] [%] | remaining binding at 1 µM (GAK) [%] | remaining binding at 1 µM (CAMKK2) [%] | remaining binding at 1 µM (CAMKK1) [%] | % Cont @ 1 μM [2] [%] | % Cont @ 1 μM [3] [%] | remaining binding at 1 µM [4] [%] | percent of control at 1 µM (CSNK1D) [%] | remaining binding at 1 µM (MEK4) [%] | remaining binding at 1 µM (SBK1) [%] | remaining binding at 1 µM (DYRK1B) [%] | remaining binding at 1 µM (KIT(V559D, V654A)) [%] | percent of control binding at 1 µM (PRKCE) [%] | remaining binding at 1 µM (AAK1) [%] | % Cont @ 1 μM [5] [%]
1 | COc1cc(-c2ccnn2C)ccc1Nc1nc(NC2CCCCC2)c2c(C#N)c[nH]c2n1 [Example 7, 4-(cyclohexylamino)-2-((2-methoxy-4-(1-methyl-1H-pyrazol-5-yl)phenyl)amino)-7H-pyrrolo[2,3-d] pyrimidine-5-carbonitrile] | < 100 | < 100 | < 100 | < 1000 | – | – | – | – | – | – | – | – | – | – | – | – | – | – | –
2 | COc1cc(N2CCCC2=O)ccc1Nc1cc(NC2CCCCC2)c2c(C#N)c[nH]c2n1 [Example 64, 4-(cyclohexylamino)-6-((2-methoxy-4-(2-oxopyrrolidin-1-yl)phenyl)amino)-1H-pyrrolo[2,3-b] pyridine-3-carbonitrile] | – | – | – | – | 3.7 | 4.4 | 2.2 | 1.6 | 0 | 1.7 | 1.9 | 19 | 27 | 5.7 | 28 | 14 | 1.4 | 4.4 | 7.2
